Results as given in patent US6677328B1, “Method for the prevention of colonic adenomas” (priority 1995, dated 2004).

Tests used:
Assay type in all cases: in vivo, Male Fischer 344 rats
[1] = tested on: azoxymethane-induced colon neoplasms in Fischer 344 rats; test: Azoxymethane-induced colon tumors in rats on supplemented AIN-76 diet (Example 1); conditions: for Tumor bearing rats, benign (adenoma), number / Tumor bearing rats, benign (adenoma), {%} / Tumor bearing rats, malignant (cancers), number / Tumor bearing rats, malignant (cancers), {%} / Tumor bearing rats, total, number / Tumor bearing rats, total, {%}: azoxymethane 15 mg/kg s.c., sacrifice after 28 weeks
Method: (§1) The control group diet is not supplemented at all. After 2 weeks, half of the rats in each group receive azoxymethane (15 mg/kg) or azoxymethane vehicle subcutaneously once a week for two weeks. […] After 28 weeks, the rats are sacrificed, the colons harvested and examined for neoplasms. None of the rats injected with azoxymethane vehicle develop tumors. Since it is believed that malignancies develop from adenomas, the total tumor bearing rat values are particularly enlightening as this represents the number of growths that are still in the adenoma stage and the number of growths that have continued to progress to cancers. Ursodiol reduced the number of growths from control by 50%, with a 100% reduction in those that progressed to cancers and a 33% reduction in the number of tumors that still remained as adenomas.

[2] = tested on: azoxymethane-induced colon neoplasms in Fischer 344 rats; test: Azoxymethane rat model, incidence of microadenomas, adenomas and cancers (Example 2); parameters: Tumor bearing rats, benign (microadenoma) / Tumor bearing rats, benign (adenoma) / Tumor bearing rats, malignant (cancers) / Tumor bearing rats, total: unit not given here; conditions: for Tumor bearing rats, benign (adenoma) / Tumor bearing rats, benign (microadenoma) / Tumor bearing rats, malignant (cancers) / Tumor bearing rats, total: azoxymethane model as Example 1
Method: as §1
The procedure of Example 1 was followed except that the number of rats involved are as stated in the table below and aberrant crypt frequency was examined upon sacrifice of the rats. The incidence of microadenomas, adenomas, and cancers in the tested populations was recorded and appears in the table below.

[3] = tested on: azoxymethane-induced colon neoplasms in Fischer 344 rats; test: Azoxymethane rat model, 7 diets, two study centers (Example 3)
Method: The control group diet is not supplemented at all. After 2 weeks, half of the rats in each group receive azoxymethane (15 mg/kg) or azoxymethane vehicle subcutaneously once a week for two weeks. […] After 28 weeks, the rats are sacrificed, the colons harvested and examined for neoplasms.

[4] = piroxicam diet, level not given
[5] = Study Center 2, standard diet + Piroxicam, level not given
[6] = Study center 1, standard diet + Piroxicam, level not given
[7] = Study Center 2, standard diet + 0.2%
[8] = Study Center 2, standard diet + 0.4%
[9] = Study center 1, standard diet + 0.2%
[10] = Study center 1, standard diet + 0.4%

Structure (SMILES) | Tumor bearing rats, benign (adenoma), number ([1]; diet supplement 0.4%) | Tumor bearing rats, benign (adenoma), {%} ([1]; diet supplement 0.4%) [%] | Tumor bearing rats, malignant (cancers), number ([1]; diet supplement 0.4%) | Tumor bearing rats, malignant (cancers), {%} ([1]; diet supplement 0.4%) | Tumor bearing rats, total, {%} ([1]; diet supplement 0.4%) [%] | Tumor bearing rats, benign (adenoma) ([2]; diet supplement 0.4%) | Tumor bearing rats, benign (microadenoma) ([2]; diet supplement 0.4%) | Tumor bearing rats, malignant (cancers) ([2]; diet supplement 0.4%) | Tumor bearing rats, benign [3, 7] | Tumor bearing rats, malignant [3, 7] | Tumor bearing rats, total [3, 7] | Tumor bearing rats, benign [3, 8] | Tumor bearing rats, malignant [3, 8] | Tumor bearing rats, total [3, 8] | Tumor bearing rats, benign [3, 9] | Tumor bearing rats, malignant [3, 9] | Tumor bearing rats, total [3, 9] | Tumor bearing rats, benign [3, 10] | Tumor bearing rats, malignant [3, 10] | Tumor bearing rats, total [3, 10] | other results
CN1C(C(=O)Nc2ccccn2)=C(O)c2ccccc2S1(=O)=O [Piroxicam] | – | – | – | – | – | – | – | – | – | – | – | – | – | – | – | – | – | – | – | – | Effect on adenomas and malignancies ([1]; 75 ppm in diet, in words, compared with ursodiol): reduced both adenomas and malignancies, but neither was reduced as dramatically as seen with ursodiol administration; Tumor bearing rats, benign (adenoma), number ([1]; diet supplement 75 ppm): 16; Tumor bearing rats, benign (adenoma), {%} ([1]; diet supplement 75 ppm): 29%; Tumor bearing rats, malignant (cancers), number ([1]; diet supplement 75 ppm): 3; Tumor bearing rats, malignant (cancers), {%} ([1]; diet supplement 75 ppm): 5%; Tumor bearing rats, total, number ([1]; diet supplement 75 ppm): 19; Tumor bearing rats, total, {%} ([1]; diet supplement 75 ppm): 34%; Tumor bearing rats, benign (adenoma) [2, 4]: 42; Tumor bearing rats, benign (microadenoma) [2, 4]: 25; Tumor bearing rats, malignant (cancers) [2, 4]: 8; Tumor bearing rats, total [2, 4]: 75; Tumor bearing rats, benign [3, 5]: 8; Tumor bearing rats, malignant [3, 5]: 2; Tumor bearing rats, total [3, 5]: 10; Tumor bearing rats, benign [3, 6]: 8; Tumor bearing rats, malignant [3, 6]: 1; Tumor bearing rats, total [3, 6]: 9
C[C@H](CCC(=O)O)[C@H]1CC[C@H]2[C@@H]3[C@H](O)C[C@@H]4C[C@H](O)CC[C@]4(C)[C@H]3C[C@H](O)[C@]12C [Cholic Acid, Cholic acid] | 20 | 43 | 14 | 30% | 73 | 71 | 57 | 38 | 6 | 8 | 14 | 8 | 9 | 17 | 12 | 4 | 16 | 12 | 5 | 17 | Effect on number of adenomas present ([1]; 0.4% in diet, in words): increased the number of adenomas which were present; Effect on number of malignancies over control ([1]; 0.4% in diet, in words): increased the number of malignancies over control; Tumor bearing rats, total, number ([1]; control, diet not supplemented): 34; Tumor bearing rats, total [2]: 166
C[C@H](CCC(=O)O)[C@H]1CC[C@H]2[C@@H]3[C@@H](O)C[C@@H]4C[C@H](O)CC[C@]4(C)[C@H]3CC[C@]12C [Ursodiol, 3-α-7-β-dihydroxy-5-β-cholan-24-oic acid] | 10 | 22 | 0 {0} | 0 {0} % | 22 | 27 | 23 | 0 | 6 | 4 | 10 | 6 | 0 | 6 | 8 | 5 | 13 | 4 | 0 | 4 | Reduction of the number of growths from control ([1]; 0.4% in diet, total tumor bearing rats vs control): 50%; Reduction in growths that progressed to cancers ([1]; 0.4% in diet, vs control): 100%; Reduction in the number of tumors that still remained as adenomas ([1]; 0.4% in diet, vs control): 33%; Tumor bearing rats, total, number ([1]; diet supplement 0.4%): 10; Effect on incidence of malignancies and on number and size of non-cancerous or pre-cancerous growths ([2]; 0.4% in diet, in words): not only reduces the incidence of malignancies, but also reduces both the number and size of the non-cancerous or pre-cancerous growths; Tumor bearing rats, total ([2]; diet supplement 0.4%): 50; Effect in preventing the development of tumors at lower concentration ([3]; 0.2% in diet compared with 0.4%, in words): does not seem to be as strong as lower concentrations of ursodiol, i.e., 0.2%
